Data set [1] can be described thus: Methylphenidate antagonism (mice biting corrugated paper). Particulars: Mus musculus, ip. Type of data set: in vivo. The method, then:
Methylphenidate antagonism (ED50 mg/kg i.p.)
Perspex observation cages without bottom and lid, consisting of 5 sections each measuring 12×25×30 cm. White corrugated paper. Mice, male, 18-25 g.
The test substance is given i.p. in the doses 0, 1/8, 1/32 and 1/128 of the determined "i.p. LD50". 3×2 mice are used for each dose level. Two or 24 hours after injection of test substance, methylphenidate, 60 mg/kg, is injected s.c. After administration of methylphenidate the mice are placed in the observation cages, 2 in each cage, where they remain for exactly 1 hour. The cages are placed on corrugated paper, the corrugations facing upwards. It is examined whether the mice have been biting the corrugated paper or not. […] If one or more of the control pairs have not been biting, the test has to be repeated on a new set of mice.
The result is stated in fractions: 0/3, 1/3, 2/3 and 3/3 where 0, 1, 2 and 3 are the number of pairs which have not been biting on receipt of the dose in question.
The results are calculated as the dose (ED50), which causes antagonism in 50% of the test animals.

A short description of data set [2]: Amphetamine antagonism (stereotypy in rats). Type of data set: in vivo. To be noted: Rattus norvegicus, ip, 24 h, read-out: Amphetamine antagonism ED50.
Data set [3] in a line: Catalepsy wire mesh, rat, max. To be noted: for ED50: Rattus norvegicus, sc, rats, s.c., strongest effect within first 6 hours, read-out: Catalepsy wire mesh, rat, max. ED50. Type of data set: in vivo, rats. On the procedure:
Catalepsy wire mesh, rat, max. (ED50 mg/kg s.c.)
A vertical wire netting (50 cm×49 cm). The meshes (openings) of the netting are square (1 cm×1 cm). The wire diameter is 2 mm. Stop watch. Rats, male, 180-200 g.
The animals are labeled and used in groups of five. The test substance is injected subcutaneously (s.c.) (5 ml/kg) at 4 dose levels selected from the fixed dose scale.
The animals are placed in the middle of the vertical wire netting 60, 120, 180, 240, 300 and 360 minutes after injection of the test compound. The animals are considered cataleptic when they remain immobile during a period of 15 seconds. This cataleptic reaction is designated +. If the rats are "atonic" and passively slide down the wire mesh they are considered not cataleptic. If the animals climb up and down the wire mesh they are nor cataleptic. In both situations the designation - is used.

Data set [4] can be described thus: Neuroleptic effect: duration and strength (remarks of Table 2). Type of data set: in vivo. To be noted: in words; for Duration (remarks, words): duration of neuroleptic effect; for Strength of effect (remarks, words): strength of neuroleptic effect. The text has this:
The pharmacological testing of the novel xanthones and thioxanthenes of Formula I consisted of standard and reliable tests. […]

[5] abbreviates: 2 h, read-out: Methylphenidate antagonism ED50, 2 h.
Setting [6] is: 24 h, read-out: Methylphenidate antagonism ED50, 24 h.
The mark [7] stands for this setting: mice, i.p., methylphenidate 60 mg/kg s.c. 2 h after test substance, read-out: Methylphenidate antagonism ED50, 2 h.
Setting [8] is: mice, i.p., methylphenidate 60 mg/kg s.c. 24 h after test substance, read-out: Methylphenidate antagonism ED50, 24 h.

Some results are limits rather than exact numbers.

The term ED50 denotes the dose at which the effect has come halfway, by size or by number of responders.

Consider `CN(C)CC/C=C1/c2ccccc2Sc2ccc(Cl)cc21` [chlorprothixene, reference compound], for which the ED50 in data set [1] (setting [5]) was 0.71 mg/kg; in data set [1] (setting [6]) it was greater than 20 mg/kg; in data set [2], 6.1 mg/kg; in data set [3], 4 mg/kg. The “Duration (remarks, words)” value in data set [4] is listed as “short acting”. Moreover, the “Strength of effect (remarks, words)” value in data set [4] is listed as “moderately strong”.

`OCCN1CCN(CCCN2c3ccccc3Sc3ccc(C(F)(F)F)cc32)CC1` [fluphenazine, reference compound]: the ED50 in data set [1] (setting [5]) stood at 0.04 mg/kg; in data set [1] (setting [6]) it was 3.6 mg/kg; in data set [2] it was 0.08 mg/kg; in data set [3], 0.099 mg/kg. Besides, the “Duration (remarks, words)” value in data set [4] was “short acting”. In addition, in data set [4], the “Strength of effect (remarks, words)” value was “very strong”.

As to `O[C@H]1CC[C@@H](CN2CCC(=C3c4ccc(F)cc4Sc4ccc(C(F)(F)F)cc43)CC2)CC1` [Lu 15-013, 1-(cis-4-hydroxycyclohexylmethyl)-4-(2-trifluoromethyl-6-fluoro-9-thioxanthenylidene)piperidene], the median effective dose (ED50) in data set [1] (setting [7]) worked out at 0.63 mg/kg; in data set [1] (setting [8]), 0.1 mg/kg; in data set [2] it was 0.76 mg/kg; in data set [3] it was 1.2 mg/kg. Besides, the “Duration (remarks, words)” value in data set [4] was “long acting”. Besides, the “Strength of effect (remarks, words)” value in data set [4] is given as “strong”.

Take `Fc1ccc2c(c1)Sc1ccc(C(F)(F)F)cc1C2=C1CCN(CC2CCOCO2)CC1` (stereo not shown) [Lu 14-130, 1-(1,3-Dioxan-4-ylmethyl)-4-(2-trifluoromethyl-6-fluoro-9-thioxanthenylidene)piperidine]: the median effective dose (ED50) turned out to be 0.77 mg/kg in data set [1] (setting [7]), 0.7 mg/kg in data set [1] (setting [8]), 0.62 mg/kg in data set [2] and 2.8 mg/kg in data set [3]. Moreover, the “Duration (remarks, words)” value in data set [4] was “long acting”. The “Strength of effect (remarks, words)” value in data set [4] is “moderately strong”.

In the case of `CN(C)CCCN1c2ccccc2Sc2ccc(Cl)cc21` [chlorpromazine, reference compound], the median effective dose (ED50) was determined as 4 mg/kg in data set [1] (setting [5]), 20 mg/kg in data set [1] (setting [6]), 7.1 mg/kg in data set [2] and 5.6 mg/kg in data set [3]. Further, the “Duration (remarks, words)” value in data set [4] is listed as “short acting”. Further, the “Strength of effect (remarks, words)” value in data set [4] was “moderatley strong”.

With `O=C(CCCN1CCC(O)(c2ccc(Cl)cc2)CC1)c1ccc(F)cc1` [haloperidol, reference compound], the results for the 50% effective dose (ED50) in data set [1] (setting [5]), in data set [2] and in data set [3] were 0.06 mg/kg, 0.14 mg/kg and 0.21 mg/kg, respectively. The “Duration (remarks, words)” value in data set [4] was “short acting”. In addition, in data set [4], the “Strength of effect (remarks, words)” value is listed as “very strong”.

For the molecule `O=C1NCCN1CCN1CCC(=C2c3ccc(F)cc3Sc3ccc(C(F)(F)F)cc32)CC1` [Lu 16-104], the median effective dose (ED50) in data set [1] (setting [7]) worked out at 0.06 mg/kg; in data set [1] (setting [8]), 1.5 mg/kg; in data set [2], 0.15 mg/kg; in data set [3] it was 0.11 mg/kg. In addition, the “Duration (remarks, words)” value in data set [4] is given as “relatively short acting”. The “Strength of effect (remarks, words)” value in data set [4] was “strong”.

For the molecule `O=C1OCCN1CCN1CCC(=C2c3ccc(F)cc3Sc3ccc(Cl)cc32)CC1` [Lu 14-117, 1-(2-(2-Oxazolidinon-3-yl)ethyl)-4-(2-chloro-6-fluoro-9-thioxanthenylidene)piperidine], the ED50 in data set [1] (setting [7]) amounted to 0.21 mg/kg; in data set [1] (setting [8]) it was 29 mg/kg; in data set [2], 0.34 mg/kg; in data set [3], 1 mg/kg. Further, in data set [4], the “Duration (remarks, words)” value was “short acting”. Also, in data set [4], the “Strength of effect (remarks, words)” value is “strong”.

Consider `OCCN1CCN(CCC=C2c3ccccc3Sc3ccc(Cl)cc32)CC1` [clopenthixol, reference compound], for which the ED50 came to 1.2 mg/kg in data set [1] (setting [7]), 0.77 mg/kg in data set [2] and 0.95 mg/kg in data set [3]. Also, the “Duration (remarks, words)” value in data set [4] is “short acting”. Also, the “Strength of effect (remarks, words)” value in data set [4] is on record as “moderately strong”.

For `OCCN1CCN(CCC=C2c3ccccc3Sc3ccc(C(F)(F)F)cc32)CC1` [flupentixol, reference compound], the ED50 was 0.2 mg/kg in data set [1] (setting [5]), greater than 20 mg/kg in data set [1] (setting [6]), 0.69 mg/kg in data set [2] and 0.25 mg/kg in data set [3]. Moreover, the “Duration (remarks, words)” value in data set [4] is reported as “short acting”. Also, in data set [4], the “Strength of effect (remarks, words)” value is listed as “strong”.

Turning to `CSc1ccc2c(c1)C(=C1CCN(C[C@H]3CC[C@H](O)CC3)CC1)c1ccc(F)cc1O2` [Lu 15-119, 1-(Trans-4-hydroxycyclohexylmethyl)-4-(2-methylthio-6-fluoro-9-xanthenylidene)piperidine], the median effective dose (ED50) came to 0.09 mg/kg in data set [1] (setting [7]), 0.11 mg/kg in data set [1] (setting [8]), 0.56 mg/kg in data set [2] and 0.08 mg/kg in data set [3]. Moreover, the “Cataleptic activity” value in data set [3] (in words) was “have a cataleptic activity”. Further, the “Duration (remarks, words)” value in data set [4] is given as “long acting”. The “Strength of effect (remarks, words)” value in data set [4] is “very strong”.

On to `OC1CC(O)(CN2CCC(=C3c4ccc(F)cc4Sc4ccc(C(F)(F)F)cc43)CC2)CC(O)C1O` (stereo not shown) [Lu 15-089], for which the median effective dose (ED50) in data set [1] (setting [7]) is 0.32 mg/kg; in data set [1] (setting [8]), 0.32 mg/kg; in data set [2], 1.8 mg/kg; in data set [3], 2.7 mg/kg. The “Duration (remarks, words)” value in data set [4] is given as “relatively short acting”.

`Cc1ccc2c(c1)C(=C1CCN(CCN3CCOC3=O)CC1)c1ccc(F)cc1S2` [Lu 14-070, 1-(2-(2-Oxazolidinon-3-yl)ethyl)-4-(2-methyl-6-fluoro-9-thioxanthenylidene)-piperidine]: the ED50 in data set [1] (setting [7]) is 0.32 mg/kg; in data set [1] (setting [8]), greater than 40 mg/kg; in data set [2] it was 1.3 mg/kg; in data set [3] it was 1.8 mg/kg. In data set [4], the “Duration (remarks, words)” value is “short acting”. For the same molecule, in data set [4], the “Strength of effect (remarks, words)” value is given as “moderately strong”.

For the molecule `Cc1ccc2c(c1)Sc1ccc(C(F)(F)F)cc1C2=C1CCN(C[C@H]2CC[C@H](O)CC2)CC1` [Lu 16-014, 1-(trans-4-hydroxycyclohexylmethyl)-4-(2-trifluoromethyl-6-methyl-9-thioxanthenylidene)-piperidine], the ED50 in data set [1] (setting [7]) was determined as 0.31 mg/kg; in data set [1] (setting [8]), 1.9 mg/kg; in data set [2], 1 mg/kg; in data set [3], 0.97 mg/kg. Also, in data set [4], the “Duration (remarks, words)” value is given as “long acting”. Moreover, the “Strength of effect (remarks, words)” value in data set [4] was “moderately strong”.

Regarding `CSc1ccc2c(c1)C(=C1CCN(C[C@H]3CC[C@H](O)CC3)CC1)c1ccccc1S2` [Lu 15-019, 1-(trans-4-hydroxycyclohexylmethyl)-4-(2-methylthio-9-thioxanthenylidene)-piperidine], the 50% effective dose (ED50) was 0.77 mg/kg in data set [1] (setting [7]), greater than 40 mg/kg in data set [1] (setting [8]), 0.59 mg/kg in data set [2] and 0.6 mg/kg in data set [3]. Further, the “Duration (remarks, words)” value in data set [4] is given as “short acting”. Besides, the “Strength of effect (remarks, words)” value in data set [4] is reported as “moderately strong”.

Take `O=C1NCCN1CCN1CCC(=C2c3ccccc3Sc3ccc(Cl)cc32)CC1` [Lu 16-105]: the ED50 in data set [1] (setting [7]) came to 0.16 mg/kg; in data set [1] (setting [8]), 28 mg/kg; in data set [2], 1.2 mg/kg; in data set [3], 0.38 mg/kg. Also, the “Duration (remarks, words)” value in data set [4] is recorded as “short acting”. Besides, in data set [4], the “Strength of effect (remarks, words)” value is “strong”.

Regarding `O[C@H]1CC[C@H](CN2CCC(=C3c4ccccc4Sc4ccc(Cl)cc43)CC2)CC1` [Lu 14-047, 1-(trans-4-hydroxycyclohexylmethyl)-4-(2-chloro-9-thioxanthenylidene)-piperidine], the ED50 in data set [1] (setting [7]) was 0.59 mg/kg; in data set [1] (setting [8]) it was greater than 20 mg/kg; in data set [2], 0.32 mg/kg; in data set [3], 3.5 mg/kg. In addition, the “Duration (remarks, words)” value in data set [4] is listed as “short acting”. Further, the “Strength of effect (remarks, words)” value in data set [4] was “strong”.

As to `COc1ccc2c(c1)C(=C1CCN(C[C@H]3CC[C@H](O)CC3)CC1)c1ccc(F)cc1S2` [Lu 16-052, 1-(trans-4-hydroxycyclohexylmethyl)-4-(2-methoxy-6-fluoro-9-thioxanthenylidene)-piperidine], the median effective dose (ED50) amounted to 0.31 mg/kg in data set [1] (setting [7]), 29 mg/kg in data set [1] (setting [8]), 0.56 mg/kg in data set [2] and 0.23 mg/kg in data set [3]. In addition, the “Duration (remarks, words)” value in data set [4] is recorded as “short acting”. Besides, the “Strength of effect (remarks, words)” value in data set [4] is on record as “moderately strong”.

The record behind these values is patent publication US4285956A, “Xanthene and thioxanthene derivatives, compositions thereof and treatment therewith” (priority 1978, dated 1981).
